Laboratory results from patent publication US20140179681A1, “METHODS AND COMPOSITIONS OF TARGETED DRUG DEVELOPMENT” (priority 2010, published 2014).
pIC50: −log10 of the molar value. Like-named read-outs stand apart in the source and are kept apart here.

Legend:
[1] = test system: epithelial carcinoma A431 cell line; experiment: MTT Cell Proliferation Assay, A431 cells; format: cell-based
Procedure, shortened: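 Each concentration ran in quadruplicate across duplicate plates, with compounds serially diluted in DMSO and delivered at 0.5% DMSO in 0.5% FBS medium for 3 days.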

EGF binding site = molecular target: T1, EGF binding site (Rattus norvegicus, UniProt G3V6K6); experiment: Inhibition of [125I]EGF binding (EGF inhibitor assay, NovaScreen); conditions: determined at 25 μM; rat liver membranes; result in words
T1 construct: Receptor source was rat liver membranes; tissue NovaScreen BioSciences; host or cells: rat liver membranes
Procedure: Identified compounds, representing various pharmacophore models, were tested for ability to inhibit EGFR at 25 μM.
AD4-compounds were identified using pharmacophore models (see Example 3, Example 4) and then were docked with the binding site of EGFR (SEQ ID NO: 1) that is recognized by defined CDRs of cetuximab. The inhibition of epidermal growth factor binding by AD4-compounds was then determined (NovaScreen BioSciences, Hanover, Md.). Inhibition of EGF binding was determined at 25 μM concentration.
Receptor source was rat liver membranes. The radioligand was [^125I]EGF ([…]) at a final ligand concentration of 0.36 nM. A non-specific determinant was used as EGF—[100 nM]. The reference compound and positive control was EGF. Reactions were carried out in 10 mM HEPES (pH 7.4) containing 0.1% BSA at 25° C. for 60 minutes. The reaction was terminated by rapid vacuum filtration onto glass fiber filters. Radioactivity trapped onto the filters was determined and compared to control values to ascertain any interactions of test compounds with the EGF binding site. The EGF inhibitor assays were modified from, for example, Mukku (1984) J. Biol. Chem. 259, 6543-6546; Duh et al. (1990) World J. Surgery 14, 410-418; Lokeshwar et al. (1989) J. Biol. Chem. 264(32), 19318-19326.

T1 sequence (G3V6K6 25-1209): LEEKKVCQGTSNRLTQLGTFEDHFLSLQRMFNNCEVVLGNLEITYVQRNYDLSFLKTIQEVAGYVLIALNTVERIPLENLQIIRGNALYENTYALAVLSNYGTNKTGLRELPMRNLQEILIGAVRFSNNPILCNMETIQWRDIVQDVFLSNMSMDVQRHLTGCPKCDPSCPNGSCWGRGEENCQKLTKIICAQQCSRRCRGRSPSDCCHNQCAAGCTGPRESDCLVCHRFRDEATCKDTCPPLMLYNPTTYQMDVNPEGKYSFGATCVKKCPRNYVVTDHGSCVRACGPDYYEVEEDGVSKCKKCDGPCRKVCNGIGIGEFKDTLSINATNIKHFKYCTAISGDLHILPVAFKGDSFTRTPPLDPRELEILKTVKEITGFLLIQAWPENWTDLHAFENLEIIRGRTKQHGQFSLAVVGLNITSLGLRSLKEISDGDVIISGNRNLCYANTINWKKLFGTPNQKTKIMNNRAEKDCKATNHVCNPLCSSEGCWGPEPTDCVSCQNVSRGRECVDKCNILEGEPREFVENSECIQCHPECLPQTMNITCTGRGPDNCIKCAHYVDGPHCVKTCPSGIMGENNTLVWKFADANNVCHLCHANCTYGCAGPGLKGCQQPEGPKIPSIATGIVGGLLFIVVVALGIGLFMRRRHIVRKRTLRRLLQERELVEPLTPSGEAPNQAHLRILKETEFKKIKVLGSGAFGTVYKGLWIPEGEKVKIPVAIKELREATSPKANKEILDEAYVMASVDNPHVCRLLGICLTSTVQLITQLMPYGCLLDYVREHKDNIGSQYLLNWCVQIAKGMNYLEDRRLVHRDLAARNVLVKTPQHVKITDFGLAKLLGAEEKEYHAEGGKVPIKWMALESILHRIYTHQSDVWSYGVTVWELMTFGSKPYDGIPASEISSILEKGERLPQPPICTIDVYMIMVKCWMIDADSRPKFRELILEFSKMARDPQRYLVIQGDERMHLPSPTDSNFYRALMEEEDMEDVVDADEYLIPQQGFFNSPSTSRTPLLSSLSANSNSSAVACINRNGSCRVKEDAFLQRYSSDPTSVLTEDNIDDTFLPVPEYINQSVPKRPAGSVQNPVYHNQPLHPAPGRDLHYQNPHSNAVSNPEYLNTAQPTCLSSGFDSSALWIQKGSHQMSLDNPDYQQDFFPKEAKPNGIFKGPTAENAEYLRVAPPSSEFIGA

pIC50 ([1]; Homo sapiens, A-431, Table 11, first of x/y(ratio): A431, unit inferred, read-out: MTT Follow-up (first value))	IC50 ([1]; Homo sapiens, A-431, Table 11, first of x/y(ratio): A431, unit not printed (doses in μM), read-out: MTT Screen (first value)) [µM]	SMILES	activity in A431 ([1]; standard at 23.5 μM final concentration)	activity in A431 ([1]; standard at 31.125 μM final concentration) [%]	inhibition of epidermal growth factor binding to its receptor (EGF binding site)	MTT assay (first value) ([1]; Table 10, first of x/y(ratio): A431, three day treatment, unit not printed (doses in μM))
4.66	22.8	CCc1cc2c(CN3CCN(Cc4ccc5c(c4)OCO5)CC3)cc(=O)oc2cc1O [AD4-1734]	less than 100%	100	inhibitor of epidermal growth factor binding to its receptor	
		Cc1cc(C)cc(NS(=O)(=O)c2ccc(NC(=S)Nc3ccccc3)cc2)c1 [AD4-11091]			inhibitor of epidermal growth factor binding to its receptor	non-convergent
